In the supplement of paper PMC6045584:
± gives the standard deviation of the averaged measurements.

Columns and labels:
XAV-939 [1] = compound: T1, Oc1nc(-c2ccc(C(F)(F)F)cc2)nc2c1CSCC2 [XAV-939]; assay: surviving fraction relative to DMSO-only wells; higher = less growth inhibition; details: exposure time: 5 days
Outline: (§1)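 Viability values are CellTiter-Glo luminescence readings, given as surviving fraction against the median of DMSO-only wells. The readings were taken after 10 minutes at room temperature, following five days of continuous exposure to inhibitors at 0.5, 1, 5, 10, 50, 100, 500 and 1000 nM that began 24 hours after log-phase tumour cell lines were seeded at 250–500 cells per well in 384-well plates. Every line was screened three times and kept only if replicate Pearson r >0.7 and median Z' >0.3.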

[2] = compound: CNCc1ccc(-c2[nH]c3cc(F)cc4c3c2CCNC4=O)cc1; assay: as above; details: exposure time: 5 days
Outline: as §1

XAV-939 [3] = compound: T1, XAV-939; assay: area under dose-response curve of surviving fraction (unscaled, Aref=0) (surviving fraction x log10(nM)); higher = more resistant; details: exposure time: 5 days; dose range 0.5-1000 nM
Outline: (§2)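 Three screens per tumour cell line were run in 384-well plates at eight inhibitor concentrations from 0.5 to 1000 nM over five days. Surviving fractions, from CellTiter-Glo luminescence normalised to DMSO-only wells, were fitted with 3-parameter logistic curves in the drc R package. The reported area under the curve is the unscaled activity area. It spans log10 dose, and Aref is 0.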

OLAPARIB = compound: O=C(c1cc(Cc2n[nH]c(=O)c3ccccc23)ccc1F)N1CCN(C(=O)C2CC2)CC1 [OLAPARIB]; assay: as above; details: exposure time: 5 days; dose range 0.5-1000 nM
Outline: as §2

[4] = compound: CNCc1ccc(-c2[nH]c3cc(F)cc4c3c2CCNC4=O)cc1; assay: as above; details: exposure time: 5 days; dose range 0.5-1000 nM
Outline: as §2

CRIZOTINIB = compound: C[C@@H](Oc1cc(-c2cnn(C3CCNCC3)c2)cnc1N)c1c(Cl)ccc(F)c1Cl [CRIZOTINIB]; assay: as above; details: exposure time: 5 days; dose range 0.5-1000 nM
Outline: as §2

In the case of NY BONE, the surviving fraction (XAV-939 [1]; 0.5 nM) is reported as 0.927 ± 0.024, the surviving fraction (XAV-939 [1]; 1 nM) is reported as 0.98 ± 0.037 and the surviving fraction (XAV-939 [1]; 5 nM) is reported as 0.997 ± 0.018. The surviving fraction (XAV-939 [1]; 10 nM) was 1.06 ± 0.036, the surviving fraction (XAV-939 [1]; 50 nM) was 1.03 ± 0.053 and the surviving fraction (XAV-939 [1]; 100 nM) was 1.02 ± 0.041. For the same test system, the surviving fraction (XAV-939 [1]; 500 nM) was 0.936 ± 0.032, the surviving fraction (XAV-939 [1]; 1000 nM) was 0.924 ± 0.029 and the surviving fraction ([2]; 0.5 nM) was 0.989 ± 0.016. It also gave a surviving fraction ([2]; 1 nM) of 0.99 ± 0.044, a surviving fraction ([2]; 5 nM) of 1.05 ± 0.042 and a surviving fraction ([2]; 10 nM) of 1.01 ± 0.055. It also gave a surviving fraction ([2]; 50 nM) of 0.981 ± 0.033, a surviving fraction ([2]; 100 nM) of 1.026 ± 0.0093 and a surviving fraction ([2]; 500 nM) of 0.895 ± 0.03. The surviving fraction ([2]; 1000 nM) was 0.827 ± 0.052, the “area under dose-response curve” value (XAV-939 [3]) was 3.27 and the “area under dose-response curve” value (OLAPARIB) was 3.27.
Work on PCI30 HEADNECK yielded a surviving fraction (XAV-939 [1]; 0.5 nM) of 1.01 ± 0.029, a surviving fraction (XAV-939 [1]; 1 nM) of 0.975 ± 0.064 and a surviving fraction (XAV-939 [1]; 5 nM) of 1.07 ± 0.04. The surviving fraction (XAV-939 [1]; 10 nM) was 1.057 ± 0.0035, the surviving fraction (XAV-939 [1]; 50 nM) was 1.06 ± 0.036 and the surviving fraction (XAV-939 [1]; 100 nM) was 1.15 ± 0.065. For the same test system, the surviving fraction (XAV-939 [1]; 500 nM) was 0.945 ± 0.13, the surviving fraction (XAV-939 [1]; 1000 nM) was 0.8693 ± 0.008 and the surviving fraction ([2]; 0.5 nM) was 0.981 ± 0.059. For the same test system, the surviving fraction ([2]; 1 nM) was 1.04 ± 0.059, the surviving fraction ([2]; 5 nM) was 0.912 ± 0.019 and the surviving fraction ([2]; 10 nM) was 0.937 ± 0.037. It also gave a surviving fraction ([2]; 50 nM) of 0.916 ± 0.056, a surviving fraction ([2]; 100 nM) of 0.944 ± 0.062 and a surviving fraction ([2]; 500 nM) of 0.964 ± 0.044. The surviving fraction ([2]; 1000 nM) was 0.956 ± 0.038, the “area under dose-response curve” value [4] was 3.14 and the “area under dose-response curve” value (OLAPARIB) was 3.15.
Work on RDES SOFT TISSUE yielded a surviving fraction (XAV-939 [1]; 0.5 nM) of 1.24 ± 0.15, a surviving fraction (XAV-939 [1]; 1 nM) of 1.3 ± 0.16 and a surviving fraction (XAV-939 [1]; 5 nM) of 1.29 ± 0.21. The surviving fraction (XAV-939 [1]; 10 nM) was 1.22 ± 0.2, the surviving fraction (XAV-939 [1]; 50 nM) was 1.21 ± 0.14 and the surviving fraction (XAV-939 [1]; 100 nM) was 1.18 ± 0.27. The surviving fraction (XAV-939 [1]; 500 nM) was 1.11 ± 0.11, the surviving fraction (XAV-939 [1]; 1000 nM) was 1.08 ± 0.16 and the surviving fraction ([2]; 0.5 nM) was 1.15 ± 0.059. The surviving fraction ([2]; 1 nM) was 1.09 ± 0.17, the surviving fraction ([2]; 5 nM) was 1.02 ± 0.049 and the surviving fraction ([2]; 10 nM) was 1.06 ± 0.042. The surviving fraction ([2]; 50 nM) was 0.918 ± 0.19, the surviving fraction ([2]; 100 nM) was 1.06 ± 0.089 and the surviving fraction ([2]; 500 nM) was 1.14 ± 0.036. For the same test system, the surviving fraction ([2]; 1000 nM) was 1.38 ± 0.15, the “area under dose-response curve” value (XAV-939 [3]) was 4 and the “area under dose-response curve” value [4] was 3.42. The “area under dose-response curve” value (OLAPARIB) was 3.41.
SAOS2 BONE was tested, and the surviving fraction (XAV-939 [1]; 0.5 nM) was 1.16 ± 0.027, the surviving fraction (XAV-939 [1]; 1 nM) was 1.15 ± 0.041 and the surviving fraction (XAV-939 [1]; 5 nM) was 1.21 ± 0.022. The surviving fraction (XAV-939 [1]; 10 nM) was 1.28 ± 0.05, the surviving fraction (XAV-939 [1]; 50 nM) was 1.26 ± 0.034 and the surviving fraction (XAV-939 [1]; 100 nM) was 1.25 ± 0.051. For the same test system, the surviving fraction (XAV-939 [1]; 500 nM) was 1.14 ± 0.046, the surviving fraction (XAV-939 [1]; 1000 nM) was 1.07 ± 0.072 and the surviving fraction ([2]; 0.5 nM) was 1.12 ± 0.044. The surviving fraction ([2]; 1 nM) was 1.14 ± 0.08, the surviving fraction ([2]; 5 nM) was 1.14 ± 0.02 and the surviving fraction ([2]; 10 nM) was 1.12 ± 0.16. It also gave a surviving fraction ([2]; 50 nM) of 0.844 ± 0.061, a surviving fraction ([2]; 100 nM) of 0.833 ± 0.069 and a surviving fraction ([2]; 500 nM) of 0.747 ± 0.1. For the same test system, the surviving fraction ([2]; 1000 nM) was 0.662 ± 0.021, the “area under dose-response curve” value (XAV-939 [3]) was 3.94 and the “area under dose-response curve” value [4] was 2.96. The “area under dose-response curve” value (OLAPARIB) was 2.98.
In the case of SCC003 HEADNECK, the surviving fraction (XAV-939 [1]; 0.5 nM) is reported as 1.04 ± 0.11, the surviving fraction (XAV-939 [1]; 1 nM) is reported as 1.07 ± 0.096 and the surviving fraction (XAV-939 [1]; 5 nM) is reported as 1.1 ± 0.052. For the same test system, the surviving fraction (XAV-939 [1]; 10 nM) was 1.08 ± 0.11, the surviving fraction (XAV-939 [1]; 50 nM) was 1.02 ± 0.025 and the surviving fraction (XAV-939 [1]; 100 nM) was 1.07 ± 0.076. The surviving fraction (XAV-939 [1]; 500 nM) was 1.01 ± 0.12, the surviving fraction (XAV-939 [1]; 1000 nM) was 1.05 ± 0.13 and the surviving fraction ([2]; 0.5 nM) was 1.03 ± 0.045. It also gave a surviving fraction ([2]; 1 nM) of 1.05 ± 0.016, a surviving fraction ([2]; 5 nM) of 1.1 ± 0.059 and a surviving fraction ([2]; 10 nM) of 1.05 ± 0.078. The surviving fraction ([2]; 50 nM) was 1.07 ± 0.047, the surviving fraction ([2]; 100 nM) was 1.05 ± 0.091 and the surviving fraction ([2]; 500 nM) was 0.99 ± 0.11. For the same test system, the surviving fraction ([2]; 1000 nM) was 0.918 ± 0.057, the “area under dose-response curve” value [4] was 3.45 and the “area under dose-response curve” value (OLAPARIB) was 3.28.
For SCC36 HEADNECK, the surviving fraction (XAV-939 [1]; 0.5 nM) was 1.07 ± 0.11, the surviving fraction (XAV-939 [1]; 1 nM) was 0.964 ± 0.16 and the surviving fraction (XAV-939 [1]; 5 nM) was 1.19 ± 0.045. The surviving fraction (XAV-939 [1]; 10 nM) was 1.06 ± 0.082, the surviving fraction (XAV-939 [1]; 50 nM) was 1.11 ± 0.032 and the surviving fraction (XAV-939 [1]; 100 nM) was 1.1 ± 0.077. It also gave a surviving fraction (XAV-939 [1]; 500 nM) of 0.825 ± 0.029, a surviving fraction (XAV-939 [1]; 1000 nM) of 0.711 ± 0.022 and a surviving fraction ([2]; 0.5 nM) of 1.02 ± 0.15. The surviving fraction ([2]; 1 nM) was 0.999 ± 0.1, the surviving fraction ([2]; 5 nM) was 1.11 ± 0.024 and the surviving fraction ([2]; 10 nM) was 1.07 ± 0.1. The surviving fraction ([2]; 50 nM) was 0.763 ± 0.057, the surviving fraction ([2]; 100 nM) was 0.728 ± 0.018 and the surviving fraction ([2]; 500 nM) was 0.629 ± 0.019. The surviving fraction ([2]; 1000 nM) was 0.592 ± 0.069, the “area under dose-response curve” value [4] was 2.8 and the “area under dose-response curve” value (OLAPARIB) was 2.84.
With SCC47 HEADNECK the surviving fraction (XAV-939 [1]; 0.5 nM) was 0.987 ± 0.14, the surviving fraction (XAV-939 [1]; 1 nM) was 1.14 ± 0.058 and the surviving fraction (XAV-939 [1]; 5 nM) was 1.08 ± 0.036. For the same test system, the surviving fraction (XAV-939 [1]; 10 nM) was 1.16 ± 0.027, the surviving fraction (XAV-939 [1]; 50 nM) was 1.07 ± 0.047 and the surviving fraction (XAV-939 [1]; 100 nM) was 1.11 ± 0.082. For the same test system, the surviving fraction (XAV-939 [1]; 500 nM) was 0.962 ± 0.05, the surviving fraction (XAV-939 [1]; 1000 nM) was 0.966 ± 0.093 and the surviving fraction ([2]; 0.5 nM) was 1.04 ± 0.067. It also gave a surviving fraction ([2]; 1 nM) of 1.03 ± 0.042, a surviving fraction ([2]; 5 nM) of 1.08 ± 0.048 and a surviving fraction ([2]; 10 nM) of 1.12 ± 0.025. For the same test system, the surviving fraction ([2]; 50 nM) was 1.04 ± 0.07, the surviving fraction ([2]; 100 nM) was 1.05 ± 0.074 and the surviving fraction ([2]; 500 nM) was 1.05 ± 0.032. For the same test system, the surviving fraction ([2]; 1000 nM) was 0.987 ± 0.063, the “area under dose-response curve” value (XAV-939 [3]) was 3.53 and the “area under dose-response curve” value [4] was 3.48. For the same test system, the “area under dose-response curve” value (OLAPARIB) was 3.46.
In the case of SG27 HEADNECK, the surviving fraction (XAV-939 [1]; 0.5 nM) is reported as 1.1 ± 0.076, the surviving fraction (XAV-939 [1]; 1 nM) is reported as 0.993 ± 0.089 and the surviving fraction (XAV-939 [1]; 5 nM) is reported as 1 ± 0.058. It also gave a surviving fraction (XAV-939 [1]; 10 nM) of 1.02 ± 0.052, a surviving fraction (XAV-939 [1]; 50 nM) of 1.08 ± 0.049 and a surviving fraction (XAV-939 [1]; 100 nM) of 0.966 ± 0.081. It also gave a surviving fraction (XAV-939 [1]; 500 nM) of 0.825 ± 0.062, a surviving fraction (XAV-939 [1]; 1000 nM) of 0.802 ± 0.11 and a surviving fraction ([2]; 0.5 nM) of 1.15 ± 0.14. The surviving fraction ([2]; 1 nM) was 1.18 ± 0.21, the surviving fraction ([2]; 5 nM) was 0.878 ± 0.14 and the surviving fraction ([2]; 10 nM) was 1.14 ± 0.11. For the same test system, the surviving fraction ([2]; 50 nM) was 0.968 ± 0.093, the surviving fraction ([2]; 100 nM) was 0.923 ± 0.03 and the surviving fraction ([2]; 500 nM) was 1.05 ± 0.062. The surviving fraction ([2]; 1000 nM) was 0.989 ± 0.063, the “area under dose-response curve” value (CRIZOTINIB) was 3.57 and the “area under dose-response curve” value (OLAPARIB) was 3.27.
